Each structure is given as a SMILES string.

Series [1] can be described thus: Acute toxicity in Wister rats (Lichtfield and Wilcoxon). To be noted: in vivo, rat, mortality within 8 days, read-out: DL50 and range. As for the experimental part: (§1) The acute toxicity of PEV has been investigated on Swiss albino mice of about 20 grams average weight and in Wister rats of 150±10 grams average weight by administration both through the oral route and by the endoperitoneal route.
(§2) All the animals fasted beginning 12 hours before the experiment. For the experiment, there are used 10 animals that is 5 males and 5 females for each dosage level of treatment. The values of […] are expressed in mg/kg and are calculated on the basis of the mortality which has been determined within 8 days after the administration in accordance with the method of Lichtfield and Wilcoxon.

Series [2] in a line: Solubility. Type of series: physicochemical.
Series [3] can be described thus: Acute toxicity in Swiss albino mice (Lichtfield and Wilcoxon). To be noted: in vivo, mouse, mortality within 8 days, read-out: DL50 and range. As for the experimental part: as §1, §2
The nature of series [4]: Pharmacokinetics: plasma levels of valproic acid in Sprague-Dawley rats. It counts as in vivo. To be noted: rat. As for the experimental part: The test tubes are then removed from the ice and are stirred for a period of ten minutes. Centrifugation is carried out for the purpose of separating the phases and the organic phase in n-hexane is directly injected into the gas-chromatographic apparatus.
The study of plasma levels is carried out on Sprague-Dawley albino rats of an average body weight of 215 grams (200-230). Prior to the experiment, the rats fasted for a period of twelve hours. The acid is administered both orally and intravenously, but the ester alone is administered orally. The administrations are carried out with equimolar doses, that is in the dose of 1.39 millimole/kg which corresponds to a dose of 230 mg/kg in the case of the acid administered as the sodium salt and a dose of 360 mg/kg in the case of PEV. Both the acid as well as the ester are dissolved in ethyleneglycol:ethyl alcohol in the proportion of 65-35 (V/V). The concentration of the solution is calculated in a manner to administer 2 cc/kg. After the intervals of time shown in Table 2 in minutes or in hours, the rats in groups of six, are killed by decapitation, the blood is collected and centrifuged for the purpose of obtaining the plasma which is extracted and analyzed as previously described.
On the basis of the results, it is concluded that PEV is absorbed more rapidly, but even more significant, more uniformly compared with valproic acid. An index of the dispersion of the data has been calculated by determining the standard variation in percent with respect to the average value for each group under examination.

Series [5] deals with Wister rats. To be noted: rat, oral, literature value; cited from earlier work.

On to `CCCC(CCC)C(=O)OCOC(=O)C(C)(C)C` [PEV, pivaloyloxymethyl 2-propyl-pentanoate], for which the LD50 at 192 h in series [1] (ip, endoperitoneal) came out at 608 mg/kg; in series [1] (oral), 1440 mg/kg; in series [3] (ip, endoperitoneal), 510 mg/kg; in series [3] (oral), 1210 mg/kg. In series [2] (alcohols, ethers, ketones), the “Solubility in alcohols, ethers, ketones” value was “soluble in alcohols, ethers, ketones”. Besides, the Solubility in water entry in series [2] (water) was “insoluble in water”. Further, the Absolute biodisponibility in series [4] (in vivo) is listed as 72.4%. For the same compound, in series [4] (in vivo, po), the “Average index of dispersion of plasma levels (standard variation in percent of average)” value is listed as 15.2. In addition, the “Difference in biodisponibility in favor of the ester” value in series [4] (in vivo, po) came to 45.5%. In addition, in series [4] (orally, 1.39 mmoles/kg), the “Presence of PEV (intact ester) in the plasma” value is on record as “none of the rats treated with the ester have exhibited the presence of PEV in the plasma”.

In the case of `CCCC(CCC)C(=O)O` [valproic acid, 2-propyl-pentanoic acid], the “Average index of dispersion of plasma levels (standard variation in percent of average)” value in series [4] (in vivo, iv) amounted to 18.3; in series [4] (in vivo, po), 60.5. Moreover, in series [5], the “DL50 (Merck Index, 9th Edition)” value is 670 mg/kg.

Regarding `CCCC(CCC)C(=O)[O-].[Na+]` [sodium valproate, reference compound], the bioavailability in series [4] (in vivo, 1390 umol/kg, oral, from AUC versus i.v., read-out: Absolute biodisponibility) was 49.9%.

The values above are taken from US4442124A, “Valproic acid ester with antiepileptic and anticonvulsant activity and pharmaceutical compositions therefrom” (priority 1979, dated 1984).
